In patent US11179383B2 (Gilead Sciences, Inc., priority 2018, dated 2021):

These molecules were tested against T1, α4β7 integrin (Homo sapiens, UniProt P13612+P26010) (assay: α4β7 Integrin Cell Capture Assay). Details: capture of α4β7 integrin expressing RPMI8866 cells on recombinant MadCAM-1 extracellular domain-coated plate; DMEM+0.5% FBS+0.5 mM MnCl2; read-out: EC50 α4β7.
T1 construct: monitoring the capture of α4β7 integrin expressing cells on a recombinant MadCAM-1 extracellular domain-coated plate; endogenous in cells; host or cells: RPMI8866 cells
T1 sequence (P13612 34-1032): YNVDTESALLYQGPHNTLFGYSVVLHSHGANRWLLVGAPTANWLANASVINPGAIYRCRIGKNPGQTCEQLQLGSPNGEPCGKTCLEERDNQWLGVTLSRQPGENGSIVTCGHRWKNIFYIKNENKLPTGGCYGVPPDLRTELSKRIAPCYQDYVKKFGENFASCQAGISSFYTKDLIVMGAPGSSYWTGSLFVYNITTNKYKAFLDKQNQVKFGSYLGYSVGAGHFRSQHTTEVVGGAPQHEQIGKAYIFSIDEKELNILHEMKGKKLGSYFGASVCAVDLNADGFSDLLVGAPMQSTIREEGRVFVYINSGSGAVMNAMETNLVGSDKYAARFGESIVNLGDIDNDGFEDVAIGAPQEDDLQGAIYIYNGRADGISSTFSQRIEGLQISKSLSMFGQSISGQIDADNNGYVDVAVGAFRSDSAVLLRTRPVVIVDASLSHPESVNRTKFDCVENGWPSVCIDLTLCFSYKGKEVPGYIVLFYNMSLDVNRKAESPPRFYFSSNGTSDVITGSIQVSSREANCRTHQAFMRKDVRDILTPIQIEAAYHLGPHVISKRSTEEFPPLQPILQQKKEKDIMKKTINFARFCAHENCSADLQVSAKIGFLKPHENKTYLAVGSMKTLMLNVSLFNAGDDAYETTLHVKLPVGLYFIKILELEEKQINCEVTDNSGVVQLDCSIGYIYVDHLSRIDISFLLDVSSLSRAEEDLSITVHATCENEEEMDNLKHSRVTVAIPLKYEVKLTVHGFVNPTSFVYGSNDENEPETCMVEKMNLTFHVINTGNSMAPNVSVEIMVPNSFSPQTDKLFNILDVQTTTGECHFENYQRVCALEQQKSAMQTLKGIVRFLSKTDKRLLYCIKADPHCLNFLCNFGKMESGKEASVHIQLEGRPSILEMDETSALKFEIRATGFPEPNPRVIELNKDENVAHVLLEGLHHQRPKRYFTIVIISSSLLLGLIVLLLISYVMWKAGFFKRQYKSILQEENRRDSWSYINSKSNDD
T1 sequence (P26010 20-798): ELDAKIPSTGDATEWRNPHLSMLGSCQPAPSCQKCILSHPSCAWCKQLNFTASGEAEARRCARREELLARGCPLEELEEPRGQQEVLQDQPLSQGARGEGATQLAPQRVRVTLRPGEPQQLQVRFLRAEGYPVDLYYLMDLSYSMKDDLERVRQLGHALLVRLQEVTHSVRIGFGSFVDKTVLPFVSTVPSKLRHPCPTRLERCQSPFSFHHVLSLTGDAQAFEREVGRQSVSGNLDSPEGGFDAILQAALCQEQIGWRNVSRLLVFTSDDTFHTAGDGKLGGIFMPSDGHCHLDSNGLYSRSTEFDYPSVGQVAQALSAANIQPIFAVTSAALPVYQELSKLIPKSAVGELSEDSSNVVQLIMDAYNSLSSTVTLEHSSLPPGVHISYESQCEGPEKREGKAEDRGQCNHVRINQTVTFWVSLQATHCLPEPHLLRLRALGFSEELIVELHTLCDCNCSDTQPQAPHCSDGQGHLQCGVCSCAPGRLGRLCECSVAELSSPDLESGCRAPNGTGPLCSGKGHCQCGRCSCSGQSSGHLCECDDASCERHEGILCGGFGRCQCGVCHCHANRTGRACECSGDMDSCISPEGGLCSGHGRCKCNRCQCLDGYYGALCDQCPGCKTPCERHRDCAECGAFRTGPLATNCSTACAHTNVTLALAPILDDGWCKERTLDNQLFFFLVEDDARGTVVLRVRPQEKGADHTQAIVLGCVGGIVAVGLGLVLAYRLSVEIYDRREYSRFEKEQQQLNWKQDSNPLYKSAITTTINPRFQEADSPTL
Assay type: cell-based
Summary of the method: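 RPMI8866 cells in DMEM + 0.5% FBS + 0.5 mM MnCl2 preincubated with compound 1 h at 37 °C, then allowed to bind 30 min at 37 °C to plates coated with MAdCAM-1 extracellular domain (1.0 μg/mL). Cells fixed with glutaraldehyde, Hoechst-stained, imaged and bound cells counted; EC50 from cell count versus concentration.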

Point of comparison: O=C(N[C@@H](Cc1ccc(-c2cccc[n+]2[O-])c2cccnc12)C(=O)O)c1c(Cl)cccc1Cl [Example 38], EC50 0.212 µM. Against it:
- Cc1nn(C)nc1-c1ccc(C[C@H](NC(=O)c2c(Cl)cccc2Cl)C(=O)O)c2ncccc12 [Example 26, (S)-2-(2,6-dichlorobenzamido)-3-(5-(2,5-dimethyl-2H-1,2,3-triazol-4-yl)quinolin-8-yl)propanoic acid] — within 1.5-fold, 0.29 µM
- Cn1ccnc(-c2ccc(C[C@H](NC(=O)c3c(Cl)cccc3Cl)C(=O)O)c3ncccc23)c1=O [Example 27, (S)-2-(2,6-dichlorobenzamido)-3-(5-(4-methyl-3-oxo-3,4-dihydropyrazin-2-yl)quinolin-8-yl)propanoic acid] — 3.7-fold lower, 0.0577 µM
- COc1ncc(F)cc1-c1ccc(C[C@H](NC(=O)c2c(Cl)cccc2Cl)C(=O)O)c2ncccc12 [Example 28, (S)-2-(2,6-dichlorobenzamido)-3-(5-(5-fluoro-2-methoxypyridin-3-yl)quinolin-8-yl)propanoic acid] — within 1.5-fold, 0.194 µM
- Cn1cc(Cl)cc(-c2ccc(C[C@H](NC(=O)c3c(Cl)cccc3Cl)C(=O)O)c3ncccc23)c1=O [Example 29, (S)-3-(5-(5-chloro-1-methyl-2-oxo-1,2-dihydropyridin-3-yl)quinolin-8-yl)-2-(2,6-dichlorobenzamido)propanoic acid] — 13-fold lower, 0.0167 µM
- Cc1ccn(C)c(=O)c1-c1ccc(CC(NC(=O)c2c(Cl)cccc2Cl)C(=O)O)c2ncccc12 (stereo not drawn) [Example 30, 2-(2,6-Dichlorobenzamido)-3-(5-(1,4-dimethyl-2-oxo-1,2-dihydropyridin-3-yl)quinolin-8-yl)propanoic acid] — 4.6-fold lower, 0.0464 µM
- Cc1cc(-c2ccc(C[C@H](NC(=O)c3c(Cl)cccc3Cl)C(=O)O)c3ncccc23)c(=O)n(C)c1 [Example 31, (S)-2-(2,6-Dichlorobenzamido)-3-(5-(1,5-dimethyl-2-oxo-1,2-dihydropyridin-3-yl)quinolin-8-yl)propanoic acid] — 9.1-fold lower, 0.0232 µM
- COc1ccn(C)c(=O)c1-c1ccc(CC(NC(=O)c2c(Cl)cccc2Cl)C(=O)O)c2ncccc12 (stereo not drawn) [Example 32, 2-(2,6-Dichlorobenzamido)-3-(5-(4-methoxy-1-methyl-2-oxo-1,2-dihydropyridin-3-yl)quinolin-8-yl)propanoic acid] — 35-fold lower, 0.006 µM
- Cc1ccc(-c2ccc(C[C@H](NC(=O)c3c(Cl)cccc3Cl)C(=O)O)c3ncccc23)c(=O)n1C [Example 33, (S)-2-(2,6-dichlorobenzamido)-3-(5-(1,6-dimethyl-2-oxo-1,2-dihydropyridin-3-yl)quinolin-8-yl)propanoic acid] — 17-fold lower, 0.0122 µM
- Cc1c(-c2ccc(C[C@H](NC(=O)c3c(Cl)cccc3Cl)C(=O)O)c3ncccc23)c(=O)n(C)c2ccccc12 [Example 34, (S)-2-(2,6-dichlorobenzamido)-3-(1,4-dimethyl-2-oxo-1,2-dihydro-[3,5′-biquinolin]-8′-yl)propanoic acid] — 53-fold lower, 0.004 µM
- COc1cc(F)cc(C(F)(F)F)c1-c1ccc(C[C@H](NC(=O)c2c(Cl)cccc2Cl)C(=O)O)c2ncccc12 [Example 35, (2S)-2-(2,6-dichlorobenzamido)-3-(5-(4-fluoro-2-methoxy-6-(trifluoromethyl)phenyl)quinolin-8-yl)propanoic acid] — 4-fold lower, 0.0535 µM
- COc1cc(F)cc(Cl)c1-c1ccc(C[C@H](NC(=O)c2c(Cl)cccc2Cl)C(=O)O)c2ncccc12 [Example 36, (2S)-3-(5-(2-chloro-4-fluoro-6-methoxyphenyl)quinolin-8-yl)-2-(2,6-dichlorobenzamido)propanoic acid] — 1.8-fold lower, 0.115 µM
- COc1cccc(Cl)c1-c1ccc(C[C@H](NC(=O)c2c(Cl)cccc2Cl)C(=O)O)c2ncccc12 [Example 37, (2S)-3-(5-(2-chloro-6-methoxyphenyl)quinolin-8-yl)-2-(2,6-dichlorobenzamido) propanoic acid] — 3.2-fold lower, 0.0656 µM
- Cn1cccc(-c2ccc(C[C@H](NC(=O)c3c(Cl)cccc3Cl)C(=O)O)c3ncccc23)c1=O [Example 39, (S)-2-(2,6-dichlorobenzamido)-3-(5-(1-methyl-2-oxo-1,2-dihydropyridin-3-yl)quinolin-8-yl)propanoic acid] — 2.9-fold lower, 0.074 µM
- Cc1c(-c2ccc(C[C@H](NC(=O)c3c(Cl)cccc3Cl)C(=O)O)c3ncccc23)ncc2ccccc12 [Example 40, (S)-2-(2,6-dichlorobenzamido)-3-(5-(4-methylisoquinolin-3-yl)quinolin-8-yl)propanoic acid] — 6.5-fold lower, 0.0327 µM
- Cc1c(-c2ccc(C[C@H](NC(=O)c3c(Cl)cccc3Cl)C(=O)O)c3ncccc23)c(=O)n(C)c2cc(F)ccc12 [Example 41, (S)-2-(2,6-dichlorobenzamido)-3-(7-fluoro-1,4-dimethyl-2-oxo-1,2-dihydro-[3,5′-biquinolin]-8′-yl)propanoic acid] — 28-fold lower, 0.0075 µM
- COc1c(F)cc(F)cc1-c1ccc(C[C@H](NC(=O)c2c(Cl)cccc2Cl)C(=O)O)c2ncccc12 [Example 42, (S)-2-(2,6-dichlorobenzamido)-3-(5-(3,5-difluoro-2-methoxyphenyl)quinolin-8-yl)propanoic acid] — within 1.5-fold, 0.152 µM
- COc1c(-c2ccc(C[C@H](NC(=O)c3c(Cl)cccc3Cl)C(=O)O)c3ncccc23)ccc(F)c1F [Example 43, (S)-2-(2,6-dichlorobenzamido)-3-(5-(3,4-difluoro-2-methoxyphenyl)quinolin-8-yl)propanoic acid] — within 1.5-fold, 0.161 µM
- O=C(N[C@@H](Cc1ccc(-c2c(Cl)cccc2C(F)(F)F)c2cccnc12)C(=O)O)c1c(Cl)cccc1Cl [Example 44, (2S)-3-(5-(2-chloro-6-(trifluoromethyl)phenyl)quinolin-8-yl)-2-(2,6-dichlorobenzamido)propanoic acid] — 2.5-fold higher, 0.538 µM
- COc1c(F)cccc1-c1ccc(C[C@H](NC(=O)c2c(Cl)cccc2Cl)C(=O)O)c2ncccc12 [Example 45, (S)-2-(2,6-dichlorobenzamido)-3-(5-(3-fluoro-2-methoxyphenyl)quinolin-8-yl)propanoic acid] — within 1.5-fold, 0.243 µM
- COc1cc(F)c(F)cc1-c1ccc(C[C@H](NC(=O)c2c(Cl)cccc2Cl)C(=O)O)c2ncccc12 [Example 46, (S)-2-(2,6-dichlorobenzamido)-3-(5-(4,5-difluoro-2-methoxyphenyl)quinolin-8-yl)propanoic acid] — 6.6-fold lower, 0.0322 µM
- O=C(N[C@@H](Cc1ccc(-c2nccc(C(F)(F)F)c2Cl)c2cccnc12)C(=O)O)c1c(Cl)cccc1Cl [Example 51, (S)-3-(5-(3-chloro-4-(trifluoromethyl)pyridin-2-yl)quinolin-8-yl)-2-(2,6-dichlorobenzamido)propanoic acid] — 4.7-fold lower, 0.0451 µM
- COc1cc(F)c(Cl)cc1-c1ccc(C[C@H](NC(=O)c2c(Cl)cccc2Cl)C(=O)O)c2ncccc12 [Example 52, (S)-3-(5-(5-chloro-4-fluoro-2-methoxyphenyl)quinolin-8-yl)-2-(2,6-dichlorobenzamido)propanoic acid] — 4.8-fold lower, 0.0438 µM
- [2H]C([2H])([2H])Oc1cc(F)c(F)cc1-c1ccc(C[C@H](NC(=O)c2c(Cl)cccc2Cl)C(=O)O)c2ncccc12 [Example 55, (S)-2-(2,6-dichlorobenzamido)-3-(5-(4,5-difluoro-2-(methoxy-d3)phenyl)quinolin-8-yl)propanoic acid] — 3.4-fold lower, 0.0631 µM
